The text below walks through data of ChEMBL document CHEMBL1138373, “New antifungal flavonoid glycoside from Vitex negundo” (2007).

In brackets after ≈: the same amount, converted by molar mass. A value given as a limit tells only on which side of the number the result lay.

One test relates to Candida parapsilosis. The test can be described thus: Antifungal activity against Candida parapsilosis ATCC 22019 by broth micro-dilution technique. It counts as functional. To be noted: Lodderomyces parapsilosis. A general note: Broth dilution looks for growth in wells or tubes with falling amounts of substance.
The test system of a further test is Staphylococcus aureus. The test can be described thus: Antibacterial activity against Staphylococcus aureus by broth micro-dilution technique. It counts as functional.
Another test has as its system Candida albicans. The test can be described thus: Antifungal activity against Candida albicans by broth micro-dilution technique. It counts as functional.
The test system of another test is Cryptococcus neoformans. The test can be described thus: Antifungal activity against Cryptococcus neoformans by broth micro-dilution technique. It counts as functional.
The next test relates to Sporothrix schenckii. Briefly: Antifungal activity against Sporothrix schenckii by broth micro-dilution technique. It counts as functional.
The next test deals with Enterococcus faecalis. Briefly: Antibacterial activity against Streptococcus faecalis by broth micro-dilution technique. It counts as functional.
In the next test the test system is Aspergillus fumigatus. Briefly: Antifungal activity against Aspergillus fumigatus by broth micro-dilution technique. It counts as functional.
The subject of a further test is Klebsiella pneumoniae. The test can be described thus: Antibacterial activity against Klebsiella pneumoniae by broth micro-dilution technique. It counts as functional.
For the next test, the system named is Pseudomonas aeruginosa. Briefly: Antibacterial activity against Pseudomonas aeruginosa by broth micro-dilution technique. It counts as functional.
For a further test, the system named is Escherichia coli. Briefly: Antibacterial activity against Escherichia coli by broth micro-dilution technique. It counts as functional.
Another test has as its system Trichophyton benhamiae. Briefly: Antifungal activity against Trichophyton mentagrophytes by broth micro-dilution technique. It counts as functional, Arthroderma benhamiae.

With `COC(=O)[C@H]1O[C@@H](Oc2cc(-c3cc(=O)c4c(O)cc(O)cc4o3)ccc2O)[C@H](O)[C@@H](O)[C@@H]1O`, the MIC with Candida parapsilosis is more than 50 µg/mL; with Staphylococcus aureus, more than 50 µg/mL; against Candida albicans, more than 50 µg/mL; in the test with Cryptococcus neoformans it was 6.25 µg/mL (≈ 13.1 µM); with Sporothrix schenckii, more than 50 µg/mL; in the test on Enterococcus faecalis, more than 50 µg/mL. Also, the MIC against Aspergillus fumigatus is more than 50 µg/mL; in the test with Klebsiella pneumoniae it was more than 50 µg/mL; against Pseudomonas aeruginosa, more than 50 µg/mL; in the test on Escherichia coli, more than 50 µg/mL; against Trichophyton benhamiae, 6.25 µg/mL (≈ 13.1 µM).
Regarding `C[C@]1(O)CC[C@@H]2C(C(=O)O)=CO[C@@H](O[C@H]3O[C@@H](CO)[C@H](O)[C@@H](O)[C@@H]3OC(=O)c3ccc(O)cc3)[C@@H]21`, the MIC with Candida parapsilosis was more than 50 µg/mL; in the test on Staphylococcus aureus it was 50 µg/mL (≈ 101 µM); in the test on Candida albicans, more than 50 µg/mL; in the test on Cryptococcus neoformans it was 6.25 µg/mL (≈ 12.6 µM); with Sporothrix schenckii it was more than 50 µg/mL; against Enterococcus faecalis, more than 50 µg/mL. Further, the MIC in the test on Aspergillus fumigatus stood at 50 µg/mL (≈ 101 µM); with Klebsiella pneumoniae, 25 µg/mL (≈ 50.4 µM); against Pseudomonas aeruginosa it was 25 µg/mL (≈ 50.4 µM); in the test on Escherichia coli it was 25 µg/mL (≈ 50.4 µM); against Trichophyton benhamiae it was 6.25 µg/mL (≈ 12.6 µM).
Consider `O=C(OCC1=C[C@@H](O)[C@@H]2C=CO[C@@H](O[C@H]3O[C@@H](CO)[C@H](O)[C@@H](O)[C@@H]3O)[C@H]12)c1ccc(O)cc1`, for which the MIC against Candida parapsilosis was more than 50 µg/mL; against Staphylococcus aureus it was more than 50 µg/mL; in the test with Candida albicans, more than 50 µg/mL; in the test with Cryptococcus neoformans it was 12.5 µg/mL (≈ 26.8 µM); in the test with Sporothrix schenckii it was more than 50 µg/mL; against Enterococcus faecalis, more than 50 µg/mL. Further, the minimum inhibitory concentration (MIC) was more than 50 µg/mL with Aspergillus fumigatus; 50 µg/mL (≈ 107 µM) in the test on Klebsiella pneumoniae; more than 50 µg/mL in the test with Pseudomonas aeruginosa; more than 50 µg/mL in the test on Escherichia coli; 12.5 µg/mL (≈ 26.8 µM) against Trichophyton benhamiae.
For the compound `CC1(C)S[C@@H]2[C@H](NC(=O)[C@H](N)c3ccccc3)C(=O)N2[C@H]1C(=O)O` [AMPICILLIN], the minimum inhibitory concentration (MIC) was 0.09 µg/mL (≈ 0.258 µM) with Staphylococcus aureus, 0.02 µg/mL (≈ 0.0572 µM) with Enterococcus faecalis, 0.09 µg/mL (≈ 0.258 µM) against Klebsiella pneumoniae and 50 µg/mL (≈ 143 µM) against Pseudomonas aeruginosa.
Regarding `COc1ccc(-c2oc3cc(OC)c(OC)c(O)c3c(=O)c2OC)cc1OC` [ARTEMETIN], the MIC in the test on Candida parapsilosis is 25 µg/mL (≈ 64.4 µM); against Staphylococcus aureus, 25 µg/mL (≈ 64.4 µM); with Candida albicans, more than 50 µg/mL; in the test with Cryptococcus neoformans, 12.5 µg/mL (≈ 32.2 µM); against Sporothrix schenckii, more than 50 µg/mL; in the test on Enterococcus faecalis, more than 50 µg/mL. For the same compound, the MIC was 50 µg/mL (≈ 129 µM) against Aspergillus fumigatus; 25 µg/mL (≈ 64.4 µM) in the test with Klebsiella pneumoniae; 50 µg/mL (≈ 129 µM) with Pseudomonas aeruginosa; 50 µg/mL (≈ 129 µM) in the test with Escherichia coli; 25 µg/mL (≈ 64.4 µM) in the test with Trichophyton benhamiae.
For `OC(Cn1cncn1)(Cn1cncn1)c1ccc(F)cc1F` [FLUCONAZOLE], the MIC against Candida parapsilosis was 1 µg/mL (≈ 3.27 µM); against Candida albicans, 0.5 µg/mL (≈ 1.63 µM); with Cryptococcus neoformans, 1 µg/mL (≈ 3.27 µM); against Sporothrix schenckii, 2 µg/mL (≈ 6.53 µM); with Aspergillus fumigatus it was 2 µg/mL (≈ 6.53 µM); with Trichophyton benhamiae, 2 µg/mL (≈ 6.53 µM).
On to `O=c1cc(-c2ccc(O)c(O)c2)oc2cc(O)c([C@@H]3O[C@H](CO)[C@@H](O)[C@H](O)[C@H]3O)c(O)c12` [ISOORIENTIN], for which the MIC is more than 50 µg/mL with Candida parapsilosis; 25 µg/mL (≈ 55.8 µM) against Staphylococcus aureus; more than 50 µg/mL in the test on Candida albicans; 25 µg/mL (≈ 55.8 µM) in the test on Cryptococcus neoformans; more than 50 µg/mL against Sporothrix schenckii; 25 µg/mL (≈ 55.8 µM) against Enterococcus faecalis. Further, the MIC was 50 µg/mL (≈ 112 µM) against Aspergillus fumigatus; 25 µg/mL (≈ 55.8 µM) against Klebsiella pneumoniae; more than 50 µg/mL against Pseudomonas aeruginosa; 25 µg/mL (≈ 55.8 µM) in the test on Escherichia coli; 12.5 µg/mL (≈ 27.9 µM) against Trichophyton benhamiae.
Regarding `O=c1cc(-c2ccc(O)c(O)c2)oc2cc(O)cc(O)c12` [LUTEOLIN], the MIC in the test with Candida parapsilosis is 25 µg/mL (≈ 87.3 µM); against Staphylococcus aureus, 25 µg/mL (≈ 87.3 µM); against Candida albicans, more than 50 µg/mL; with Cryptococcus neoformans it was 25 µg/mL (≈ 87.3 µM); in the test on Sporothrix schenckii it was more than 50 µg/mL; in the test with Enterococcus faecalis, 25 µg/mL (≈ 87.3 µM). The MIC in the test with Aspergillus fumigatus is more than 50 µg/mL; with Klebsiella pneumoniae it was 25 µg/mL (≈ 87.3 µM); in the test on Pseudomonas aeruginosa, 25 µg/mL (≈ 87.3 µM); against Escherichia coli, 50 µg/mL (≈ 175 µM); in the test on Trichophyton benhamiae it was 50 µg/mL (≈ 175 µM).

A word on the MIC: it is the lowest concentration found to suppress growth. Read a high MIC as a need for much substance.
